According to publication PMC9609178, “Tumor-Specific Monomethyl Auristatin E (MMAE) Prodrug Nanoparticles for Safe and Effective Chemotherapy” (Pharmaceutics, 2022):
Square brackets hold non-standard residues; d marks the D form. Peptide text beside a SMILES is read from it. * marks the point of attachment. Dolaproine = CO[C@@H]([C@@H]1CCCN1)[C@@H](C)C(=O)O; Dil = CC[C@H](C)[C@H](NC)[C@@H](CC(=O)O)OC; X1 = C[C@@H](N*)[C@@H](O)c1ccccc1; NMeV = CN[C@H](C(=O)O)C(C)C

Assays:
[1] = cited from earlier work
From the text: Monomethyl auristatin E (MMAE), a synthetic analog of the natural product dolastatin 10, is a potent antimitotic agent that inhibits tubulin polymerization.

4T1 tumor = experiment: Antitumor efficacy in 4T1 breast tumor models; assay type: in vivo, mice
Procedure: (§1) The antitumor efficacy was evaluated in the breast tumor models. The breast tumor models were prepared via subcutaneous injection of 1 × 10^6 4T1 cells. […] The mice were treated once every three days, and tumor volumes were calculated as the smallest diameter^2 × largest diameter × 0.53. The mice with a tumor volume of 2000 mm^3 or larger were counted as dead. […] The major organs were collected from mice on day 5 after treatments, and structural abnormality in the organ tissues was assessed by staining with H&E.

H9C2 cells = experiment: Cytotoxicity, CCK-8 assay, H9C2 cells; assay type: cell-based, rat; details: 24 h incubation; CCK-8, 450 nm; read-out: IC50, cell viability, H9C2 cells
Procedure: (§2) First, […] 4T1 or H9C2 cells were seeded in the 96-well cell culture plates. […] Finally, the cell viability of each cell was measured using a microplate reader with 450 nm of wavelength (VERSAmaxTM; Molecular Devices Corp., San Jose, CA, USA).

[2] = Toxicity study in 4T1 tumor-bearing mice (histology, hematology, body weight, survival); assay type: in vivo
Procedure: as §1

4T1 cells [3] = experiment: Tubulin formation in 4T1 cells (anti-tubulin antibody staining); assay type: cell-based, murine; details: after 24 h of treatment; Cy5.5 anti-tubulin antibody
Procedure: Then, cells were fixed with 4% paraformaldehyde fixative for 25 min, and stained with DAPI solution (Invitrogen, Carlsbad, CA, USA) for 15 min in the dark. Finally, the 4T1 cells were observed using a confocal laser scanning microscope (CLSM) equipped with 405 diode (405 nm) and HeNe-Red (633 nm) lasers (Leica, Wetzlar, Germany).

4T1 cells [4] = experiment: Cytotoxicity, CCK-8 assay, 4T1 cells; assay type: cell-based, murine; details: 24 h incubation; CCK-8, 450 nm; read-out: IC50, cell viability, 4T1 cells
Procedure: as §2

CC[C@H](C)[C@@H]([C@@H](CC(=O)N1CCC[C@H]1[C@H](OC)[C@@H](C)C(=O)N[C@H](C)[C@@H](O)c1ccccc1)OC)N(C)C(=O)[C@@H](NC(=O)[C@@H](NC)C(C)C)C(C)C [MMAE, Monomethyl auristatin E] (H-[NMeV]V[Dil][Dolaproine]-X1)
Antitumor efficacy, times more potent than doxorubicin [1]: 100–1000 times | Tumor growth during monitoring for 15 days (4T1 tumor; 0.1 mg/kg MMAE once every three days, 15 days): rapid tumor growth compared to FRRG-MMAE-treated mice | Tumor volume on day 5 after treatment (4T1 tumor; 0.2 mg/kg based on MMAE contents, once every three days, day 5): 154.73 ± 31.63 mm^3 | IC50 (H9C2 cells): 1.17 nM | Body weight ([2]; 0.2 mg/kg MMAE equivalent once every three days): significant body weight loss | Mice survival ([2]; 0.2 mg/kg MMAE equivalent once every three days, 15 days): all the mice were dead within five days | Hematological parameters (ALB, AST, ALT) ([2]; 0.2 mg/kg MMAE equivalent, after five days of treatment): significant changes | Structural abnormalities in normal organs (liver, lung, spleen, kidney and heart), H&E ([2]; 0.2 mg/kg once every three days, after five days of treatment): severe systemic toxicity | Tubulin formation in 4T1 cells compared to naive cells (4T1 cells [3]): significantly inhibited | IC50 (4T1 cells [4]): 0.92 nM
